Legend:
HCT116 cells = test: Cell proliferation assay (CellTiter-Glo); assay type: cell-based, human; settings: HCT116, 10 μg/mL (approximately 1 μM) every day, day 7, CellTiter-Glo
Source text: Figure 3 PS-acet.-STAT3 peptide inhibits STAT3 activity and downregulates the expression of STAT3 targets. (A) Downregulation of STAT3 activity and its downstream target proteins shown in human HCT116 colorectal cancer cells by Western blotting (data represent 1 of the 3 experiments, n = 3). PO-acet.-STAT3 and PS-STAT3-K685R peptides were used in parallel as controls. (B) STAT3 inhibition regulated the expression of proliferation and apoptotic genes, assessed by real-time quantitative PCR. Data present mean ± SD, n = 3 independent experiments, 1-way ANOVA; ***P < 0.005; **P < 0.01. […] For p53 promoter assay, data represent 3 replicates in 3 independent experiments (n = 9). For cell proliferation assay, data represent 3 independent experiments. SD is shown (n = 3). One-way ANOVA; ***P < 0.005; **P < 0.01.
HCT116 cells were seeded in a 96-well plate at a density of 6000/well. Starting the following day, cells were treated every day with 10 μg/mL (approximately 1 μM) PO- or PS-peptides. On day 7, cell proliferation was measured based on ATP production using bioluminescence detection kit for ATP measurement (CellTiter-Glo, Promega), according to manufacturer’s instruction.

B16 melanoma = B16 melanoma lung metastasis in C57BL/6 mice; assay type: in vivo, mouse
Source text: Figure 7 PS-acet.-STAT3 peptide treatment efficiently reduces mouse melanoma lung metastasis. (A) Systemic PS-acet.-STAT3 peptide treatment reduces B16 lung nodules in syngeneic mouse model compared with control treatments. The B16 lung nodules in mice treated with the indicated STAT3 peptides and vehicle (n = 5) were visualized by IF staining of gp100 and quantified by confocal microscopy and Zen software. The levels of phosphorylation of STAT3 (p-STAT3), CD69, and Foxp3 in the tumor or tumor-infiltrating CD8^+ T or CD4^+ T cells were detected by IF staining followed by confocal microscopy in B16 metastatic lung nodules upon treatments with vehicle, PO- or PS-acet.-STAT3, PS-STAT3-K685R, or PS-unacet.-STAT3 peptides as indicated. Images are representative of 5 lungs per experimental group. Scale bars: 20 μm (CD69, CD8, CD4, p-STAT3, and Foxp3) and 100 μm (gp100). White arrows indicate the immune cells. Insets: original magnification, ×40. (B) The graphs show the quantification of gp100 and p-STAT3 expression levels (MFI) or the cell population (%) of CD69^+ in CD8^+ or p-STAT3^+ in CD4^+ or Foxp3^+ in CD4^+ (data represent 5 lungs per group, n = 5). SD is shown. One-way ANOVA; ****P < 0.001.
Mouse care and experimental procedures were performed under pathogen-free conditions in accordance with established institutional guidance and approved IACUC protocols from Research Animal Care Committee of the City of Hope. For s.c. tumor challenge, 5 × 10^6 HCT116 cells were injected into NSG mice from The Jackson Laboratory or animal resource core facility at the City of Hope. After tumors reached an average size of 80~100 mm^3, mice were locally or intravenously treated with 1 mg/kg of PO- or PS-peptides (Anaspec) every day or every other day. Control animals were treated with the equal volume of HBSS (Invitrogen, Thermo Fisher Scientific). Tumor growth was measured by a digital caliper every other day. To study the effects of the modified peptides at protein and gene levels, mice were euthanized 4–6 weeks after tumor injection. B16 melanoma lung metastasis was performed by injecting 0.5 × 10^6 B16 cells into bloodstream of C57BL/6 mice (The Jackson Laboratory). One day after tumor challenge, mice were treated intravenously (retro-orbitally) with 1 mg/kg of PO- or PS-acet.-STAT3, PS-unacet.-STAT3, or PS-STAT3-K685R peptides every other day until the endpoint as indicated. Control mice were treated with HBSS. Lungs were excised from the mice, and B16 nodules were visualized by gp100 staining. Lungs were then analyzed for immune responses by immunostaining followed by confocal imaging. For mouse PDAC model, 5 × 10^6 KPC mouse cells were mixed with Matrigel and subcutaneously injected into C57BL/6 mice (The Jackson Laboratory). After tumors reached an average size of 80~100 mm^3, mice were intravenously treated with 1 mg/kg of PO- or PS-Gp130, PS-oligo, PS-SC-MYC, PS-MYC. or combined PS-Gp130/PS-MYC (0.5 mg/kg, 0.5 mg/kg) (Anaspec) every other day for 18 days. Control animals were treated with the equal volume of HBSS (Invitrogen, Thermo Fisher Scientific). Tumor growth was measured by a digital caliper every other day. To study the effects of the modified peptides at protein and gene levels, mice were euthanized at the endpoint as indicated.

## PDIPKEEAFGK685(Ac)YCRPESQEHPC-linker-T*C*C*A*T*G*A*G*C*T*T*C*C*T*G*A*T*G*C*T [PS-acet.-STAT3 peptide]
HCT116 cells
  cell proliferation: decrease
B16 melanoma; B16 i.v. in C57BL/6 mice, 1 mg/kg i.v. every other day, gp100 staining, n = 5
  metastatic lung nodules: striking reduction
B16 melanoma; B16 lung nodules, IF staining, confocal
  STAT3 activation (p-STAT3) in tumor cells and CD4+ T cells: significantly decreased
B16 melanoma; IF staining, confocal
  infiltration of CD69+ activated CD8+ T cells in metastatic B16 lung nodules: increased
  tumor-associated FoxP3+CD4+ T cells (regulatory T cells): concomitantly reduced

— article PMC7934871 (JCI Insight, 2021)
